These results are taken from paper PMC10586017 (ACS Omega, 2023).

Type in all cases: cell-based
One assay has as its system HepG-2 cells. The assay is described as follows: cells. The settings on record: Homo sapiens, HepG2, read-out: mean IC50 HepG-2 ± SD.
The next assay deals with MCF-7 cells. The assay is described as follows: cells. The settings on record: Homo sapiens, MCF7, read-out: mean IC50 MCF-7 ± SD.
Another assay concerns Caco-2 cells. Nature of the assay: cells. The conditions noted are these: Homo sapiens, Caco-2, read-out: mean IC50 Caco-2 ± SD.
A further assay relates to Vero cells. The assay is described as follows: cells. The settings on record: Chlorocebus sabaeus, read-out: mean IC50 Vero cells.
Another assay deals with β-actin.
In another assay the target is p-eIF4E (Homo sapiens, UniProt P06730).
A further assay addresses eIF4E (Homo sapiens, UniProt P06730).

Marks after values point to notes of the source that are not given here.

Chain of p-eIF4E (P06730 whole entry): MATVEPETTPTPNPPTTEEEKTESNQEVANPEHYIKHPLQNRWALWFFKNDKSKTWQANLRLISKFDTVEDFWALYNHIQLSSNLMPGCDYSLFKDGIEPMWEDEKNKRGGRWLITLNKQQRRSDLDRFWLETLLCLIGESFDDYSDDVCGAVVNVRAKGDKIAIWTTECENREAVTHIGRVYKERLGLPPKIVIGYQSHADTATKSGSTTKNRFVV
Chain of eIF4E (P06730 whole entry): as above

The IC50 is the concentration at which inhibition is half-maximal. As for `CO[C@H]1C[C@@H]2CC[C@@H](C)[C@@](O)(O2)C(=O)C(=O)N2CCCC[C@H]2C(=O)O[C@H]([C@H](C)C[C@@H]2CC[C@@H](O)[C@H](OC)C2)CC(=O)[C@H](C)/C=C(\C)[C@@H](O)[C@@H](OC)C(=O)[C@H](C)C[C@H](C)/C=C/C=C/C=C/1C` [Rapamycin], the IC50 is 47.6 ± 3.83 µM in the assay with HepG-2 cells, 5.62 ± 0.24 µM in the assay with MCF-7 cells, 27.7 ± 1.63 µM with Caco-2 cells and greater than 100 µM in the assay with Vero cells.

For `NC(=O)c1ncn([C@@H]2O[C@H](CO)[C@@H](O)[C@H]2O)n1` [Ribavirin], the IC50 with HepG-2 cells was 63.9 ± 3.43 µM. Moreover, the IC50 with MCF-7 cells stood at 10.2 ± 0.15 µM. In the assay with β-actin, the “mean protein, β-actin” value was determined as 3.118 ng/mL and the “protein ratio normalized to reference protein, β-actin” value is recorded as 72.2. Further, the IC50 with Caco-2 cells turned out to be 9.78 ± 0.94 µM. Besides, on p-eIF4E, the “change in fold, p-eIF4E” value is 0.47; the “inhibition (decrease) of p-eIF4E expression” value is on record as 53%; the “mean protein, p-eIF4E” value turned out to be 2.190 ng/mL; the “protein ratio normalized to reference protein, p-eIF4E” value is 35.5*. In addition, in the assay on Vero cells, the IC50 is greater than 100 µM. Moreover, on eIF4E, the “change in fold, eIF4E” value worked out at 0.68; the “decrease in eIF4E protein” value is recorded as 32.1%; the “mean protein, eIF4E” value amounted to 2.520 ng/mL; the “protein ratio normalized to reference protein, eIF4E” value is recorded as 42.6*.
